{"source": "paper PMC11469249", "about": "“Enzyme‐Triggered L‐α/D‐Peptide Hydrogels as a Long‐Acting Injectable Platform for Systemic Delivery of HIV/AIDS Drugs” (Advanced Healthcare Materials, 2023)", "key": {"NCTC 929 (ATCC CCL 1)": {"tested_on": "NCTC 929 (ATCC CCL 1)", "assay": "MTS viability assay, solubilized peptides", "format": "cell-based, murine", "settings": "500 µM; at each timepoint (6, 24, 72 h)", "experimental": "Cell toxicity was assessed above and below critical gelation concentrations utilizing the International Standard (ISO) murine fibroblast subcutaneous connective tissue cell line NCTC 929 (ATCC CCL 1).^[ [51] ^]\nPreparation of tissue cell cytotoxicity assays: Cells were cultured in Minimum Essential Medium (MEM) containing phenol red, Earle's Salts, and L‐glutamine supplemented with 10% fetal bovine serum and 1 mM sodium pyruvate (Invitrogen, Paisley, UK) and grown at 37 °C/5% CO2. Cells were subcultured at 80–90% confluency via removal of media, washing with sterile PBS, and detachment of cell monolayers with 0.05% trypsin/0.53 mM EDTA.4Na solution (Invitrogen, Paisley, UK). Cells were cultured until at least the third passage, seeded at 1 × 10^4 cells per well in sterile 96‐well microtiter plates for 6 h, 24 h, and 56 day treatment times and seeded at 5 × 10^3 cells per well for 72 h treatment times. […]\nFollowing exposure to peptide after 6, 24 and 72 h, cell viability was assessed using a MTS based CellTiter 96 AQueous One Solution Cell Proliferation Assay (Promega, Southampton, UK). Absorption was measured at 490 nm using a Tecan Sunrise plate reader (Tecan UK Ltd, Reading, UK). Cell viability was calculated using Equation (2) below and reported as the mean of nine replicates."}, "proteinase K": {"target": "proteinase K (Parengyodontium album, UniProt P06873)", "sequence (P06873 106-384)": "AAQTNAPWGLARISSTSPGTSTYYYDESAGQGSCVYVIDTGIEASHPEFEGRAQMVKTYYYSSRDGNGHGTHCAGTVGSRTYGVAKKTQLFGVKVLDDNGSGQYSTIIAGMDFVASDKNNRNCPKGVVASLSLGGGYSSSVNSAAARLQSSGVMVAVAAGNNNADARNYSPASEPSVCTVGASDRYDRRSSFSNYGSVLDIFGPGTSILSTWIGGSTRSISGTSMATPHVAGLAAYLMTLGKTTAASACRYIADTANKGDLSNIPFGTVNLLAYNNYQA", "assay": "Biostability against proteinase K", "format": "in vitro ADME", "settings": "after 672 h (28 days); 0.02 w/v% peptide in PBS; proteinase K 3 U/mL; 37 °C; RP-HPLC peak area vs t = 0; mean n = 3", "protocol": "Peptides were tested for stability at multiple time points over 28 days by incubation with the broad‐spectrum protease proteinase K. Peptides were tested in solution form at concentrations below their critical gelation concentrations (0.02 w/v%) to reduce any resistance to proteolysis offered by the hydrogel matrix itself.^[ [76] ^] 1 mL aliquots of peptide dissolved in PBS buffer were added to Eppendorf tubes. Proteinase K was added at a concentration of 3 U/mL and incubated at 37 °C. Then 100 µL samples were removed at pre‐determined time points (t = 0, 0.5, 1, 3, 6, 24, 72, 168, 336, 504, and 672 h) and added to 50 µL of concentrated acetic acid to inactivate proteinase K enzyme. Then 100 µL samples were then analyzed via RP‐HPLC. The amount of peptide remaining at each time point was calculated based on the area of the peak corresponding to the peptide and presented as a percentage of the area of this peak at t = 0 (Equation (1)). (1) %Peptideremaining=Areaofpeptidepeakattesttimepoint/[Areaofpeptidepeakatt=0]×100"}, "[1]": {"assay": "Small angle neutron scattering (SANS) of hydrogels", "format": "physicochemical", "settings": "2 w/v% hydrogels in D2O; flexible cylinder elliptical model with Power Law", "protocol": "SANS was used to determine the morphology of the structures underpinning the hydrated peptide gel network. Both drug and non‐drug conjugated forms of peptides L‐α (NapFFKY‐OH and NapFFKYG‐OH) and D‐enantiomer (NapffkY‐OH and NapffkYG‐OH) were studied. Peptide hydrogels (2 w/v%) were formulated as described (Table S2, Supporting Information) in 2 mm path length UV spectrophotometer grade quartz cuvettes (Hellma) but using deuterated water (D2O) rather than PBS. SANS measurements were performed using the D11 instrument at the Institut Laue – Langevin, Grenoble, France. Scattering from the primary assembled structures (most commonly fibers) and the network were collected over a wide Q range (Q = 4πsin(θ/2)/λ) of 0.001 to 0.5 Å^−1 and three sample‐detector distances (1.4, 8, and 39 m).^[ [44] ^] Peptide samples were placed in a temperature‐controlled sample rack during measurements. The datasets obtained were reduced to 1D scattering curves of intensity versus Q using the facility provided software. Scattering from D2O controls, empty cuvette, and electronic background were subtracted from the data and the full detector images were normalized. SasView software version 5.0.4 was used to fit instrument‐independent data to several models with and without a power law applied, including a cylinder, an elliptical cylinder, a flexible cylinder, a flexible elliptical cylinder and hollow cylinders. […]"}, "[2]": {"tested_on": "alkaline phosphatase enzyme", "assay": "Rheological time sweeps, gelation time after alkaline phosphatase addition", "format": "physicochemical", "settings": "time sweep, 2 w/v%, 2 U alkaline phosphatase, 37 °C; for G′ and G″ cross (gelation time): PP50/S parallel plate, 0.5 mm gap", "protocol": "The gelation of peptides and peptide‐antiretroviral conjugates was tested over a range of concentrations (0.1–2 w/v%) in pH 7.4 phosphate buffered saline (PBS). The ability of alkaline phosphatase enzyme to trigger gelation was studied by adding 2 µL of 2 U (1000 U/mL) solution to the dissolved peptide‐PBS mixtures. Hydrogel formulation steps are outlined fully in Table S2, Supporting Information. A vial inversion assay was used as a screening tool to assess gel propensity, whereby peptide‐PBS‐alkaline phosphatase mixtures were inverted within glass HPLC vials. Gel formation and the mechanical strength of gels were definitively characterized via oscillatory rheology using an Anton Paar MCR302 rheometer (Anton Paar, St Albans, UK). A vane and cup geometry was used to perform frequency and strain sweeps. Gels were formulated as 2 mL volumes in 7 mL Sterilin vials as previously described.^[ [39b] ^] Frequency sweeps were performed at 37 °C from 1–100 rad/s at a strain of 0.5%. Amplitude sweeps were performed at 37 °C, 2.5 rad/s and a strain of 0.01–1000%. Flow point or breakage strain, where G″ ≥ G′ within the strain sweeps, was used as a measurement of gel strength. Time sweeps were performed using a sand blasted parallel plate PP50/S system at 37 °C with a 0.5 mm measuring gap over a period of 24 h. Loss and storage moduli, critical strain, viscosity, and oscillatory time sweeps were performed to relate rheological changes with time and potential for rapid in situ hydrogel implant formation upon exposure to 2 U phosphatase enzyme.\nTable S3. Gelation times for peptide hydrogels upon addition of alkaline phosphatase enzyme derived from data above in Figure S12 and Figure 3 c-d.\nPeptide G′ and G″ G′ > 2x G′′ Time for […]\nd) NapFFK(AZT)Y-OH 8.5 min 9 min 88.3 min"}, "NCTC 929 cells": {"tested_on": "NCTC 929 cells", "assay": "56 day indirect toxicity of hydrogels, LDH", "format": "cell-based, murine", "settings": "2 w/v% hydrogel supernatant; 6 h exposure; n = 3", "protocol": "Biocompatibility at the highest gel concentration of 2.0 w/v% was examined by measuring cell metabolic activity (MTS) and cytotoxicity (LDH release) in the presence of media containing leached degradation products from the peptide gels over a period of 56 days.^[ [77] ^] Following the formation of gels as outlined in Table S2, Supporting Information, 2 mL of media was added on top of each gel (1 mL of 2 w/v% gel) within a 10 mL glass vial and incubated at 37 °C and 5% CO2. For each time point in the 56 day study, NCTC 929 cells at 80–90% confluency were seeded into the wells of a 96 well plate at a concentration of 1 × 10^4 cells per well and incubated for a period of 24 h. One set of wells was left untreated and acted as the negative control, that is, metabolic activity of cells with no peptide. In the case of the LDH indirect toxicity assay, the media was removed from the cells before adding 50 µL of fresh media and 50 µL of the supernatant from the 2.0 w/v% gels at specific time points: 1, 3, 7, 14, 21, 28, and 56 days and incubated for 6 h before adding the test reagent as described above. A high LDH release control and a low LDH release control were created as before. Each experiment was performed in triplicate. The percentage cytotoxicity was calculated using Equation (2) above. […] The metabolic activity was calculated using Equation (1) above."}}, "note": "Where a SMILES comes first, the peptide text is derived from it. [ ]: non-standard residue; d: D form. The star is where a group is joined. X1 = Cc1cn([C@H]2C[C@H](N=[N+]=[N-])[C@@H](COC(=O)CCC(=O)*)O2)c(=O)[nH]c1=O; Acetyl(2-naphthyl) = O=C(Cc1ccc2ccccc2c1)*; pY = N[C@@H](Cc1ccc(OP(=O)(O)O)cc1)C(=O)O", "data": [{"compound": "Cc1cn([C@H]2C[C@H](N=[N+]=[N-])[C@@H](COC(=O)CCC(=O)NCCCC[C@H](NC(=O)[C@H](Cc3ccccc3)NC(=O)[C@H](Cc3ccccc3)NC(=O)Cc3ccc4ccccc4c3)C(=O)N[C@@H](Cc3ccc(OP(=O)(O)O)cc3)C(=O)O)O2)c(=O)[nH]c1=O", "note": "[NapFFK(AZT)Y(p)-OH] ({Acetyl(2-naphthyl)}-FFK(X1)[pY]-OH)", "values": [{"measurement": "reduction in cell metabolic activity (MTS)", "setting": "NCTC 929 (ATCC CCL 1)", "result": "40–51%"}]}, {"compound": "Cc1cn([C@H]2C[C@H](N=[N+]=[N-])[C@@H](COC(=O)CCC(=O)NCCCC[C@H](NC(=O)[C@H](Cc3ccccc3)NC(=O)[C@H](Cc3ccccc3)NC(=O)Cc3ccc4ccccc4c3)C(=O)N[C@@H](Cc3ccc(OP(=O)(O)O)cc3)C(=O)NCC(=O)O)O2)c(=O)[nH]c1=O", "note": "[NapFFK(AZT)Y(p)G-OH]", "values": [{"measurement": "zidovudine blood plasma concentrations for 35 days", "setting": "subcutaneous administration, within IC50 range", "result": "30 to 130", "unit": "ng/mL"}]}, {"compound": "NCCCC[C@H](NC(=O)[C@H](Cc1ccccc1)NC(=O)[C@H](Cc1ccccc1)NC(=O)Cc1ccc2ccccc2c1)C(=O)N[C@@H](Cc1ccc(OP(=O)(O)O)cc1)C(=O)O", "note": "[NapFFKY(p)-OH, phosphorylated (naphthalene‐2‐ly)‐acetyl‐diphenylalanine‐lysine‐tyrosine‐OH] (HELM PEPTIDE1{[O=C(Cc1ccc2ccccc2c1)[*:2]].F.F.K.[O=C(O)[C@H](Cc1ccc(OP(=O)(O)O)cc1)N[*:1]]}$$$$V2.0)", "values": [{"measurement": "% peptide remaining", "setting": "proteinase K", "result": 85.4, "unit": "%"}]}, {"compound": "NCCCC[C@H](NC(=O)[C@H](Cc1ccccc1)NC(=O)[C@H](Cc1ccccc1)NC(=O)Cc1ccc2ccccc2c1)C(=O)N[C@@H](Cc1ccc(OP(=O)(O)O)cc1)C(=O)NCC(=O)O", "note": "[NapFFKY(p)G-OH]", "values": [{"measurement": "% peptide remaining", "setting": "proteinase K", "result": 91.9, "unit": "%"}]}, {"compound": "Cc1cn([C@H]2C[C@H](N=[N+]=[N-])[C@@H](CO)O2)c(=O)[nH]c1=O", "note": "[zidovudine, reference compound]", "values": [{"measurement": "time after which plasma zidovudine is undetectable", "setting": "zidovudine intravenous control", "result": 6, "unit": "h"}]}, {"compound": "NapFFKY-OH [hydrogel-forming peptide after phosphatase removal of the phosphate group]", "values": [{"measurement": "fiber radius", "setting": "[1]", "result": 1.495, "unit": "nm"}, {"measurement": "G′ > 2x G″", "setting": "[2]", "result": 9.67, "unit": "min"}, {"measurement": "Time for stable G′", "setting": "[2]", "result": 68.3, "unit": "min"}, {"measurement": "G′ and G″ cross (gelation time)", "setting": "[2]", "result": 8.58, "unit": "min"}]}, {"compound": "NapFFKYG-OH [hydrogel-forming L-α peptide with glycine spacer]", "values": [{"measurement": "fiber radius", "setting": "[1]", "result": 2.038, "unit": "nm"}, {"measurement": "G′ > 2x G″", "setting": "[2]", "result": 7.75, "unit": "min"}, {"measurement": "Time for stable G′", "setting": "[2]", "result": 65.7, "unit": "min"}, {"measurement": "G′ and G″ cross (gelation time)", "setting": "[2]", "result": 5.92, "unit": "min"}, {"measurement": "LDH cell toxicity, indirect, after 21 days", "setting": "NCTC 929 cells", "result": 23.2, "unit": "%"}, {"measurement": "LDH cell toxicity, indirect, after 56 days", "setting": "NCTC 929 cells", "result": 37, "unit": "%"}]}]}
